# Laboratory results reported in ChEMBL document CHEMBL1201862, “PubChem BioAssay data set” (2004).
# Calls of active or inactive are those of the source.
# Legend:
# [1] = target: Eukaryotic translation initiation factor 4E (Mus musculus, UniProt P63073); assay: blockers of eIF4G binding by eIF4E – biochemical, TR-FRET, dose response (AID 855); format: functional;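 also: potency for disrupting eIF4E binding to eIF4GI seen as loss of FRET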
# Caspase-7 = Caspase-7 (Homo sapiens, UniProt P55210); assay: caspase-7 enzyme inhibition, selectivity check – biochemical, DEVD-R110 fluorescence, cherry-pick, selectivity assay for caspase-6 inhibitor project, dose response (AID 743295); format: functional
# Caspase-8 = Caspase-8 (Homo sapiens, UniProt Q14790); assay: inhibitors of purified CASP8 protease – biochemical, Z-IETD-R110 fluorescence, cherry-picked samples, selectivity assay for caspase-6 inhibitor project, dose response (AID 743294)
# [2] = target: Induced myeloid leukemia cell differentiation protein Mcl-1 (Homo sapiens, UniProt Q07820); format: functional
# Caspase-6 = target: T1, Caspase-6 (Homo sapiens, UniProt P55212); assay: inhibition of CASP6 peptide cleavage – biochemical, VEID-R110 fluorescence, cherry-pick, dose response (AID 720632)
# T1 sequence (P55212 whole entry): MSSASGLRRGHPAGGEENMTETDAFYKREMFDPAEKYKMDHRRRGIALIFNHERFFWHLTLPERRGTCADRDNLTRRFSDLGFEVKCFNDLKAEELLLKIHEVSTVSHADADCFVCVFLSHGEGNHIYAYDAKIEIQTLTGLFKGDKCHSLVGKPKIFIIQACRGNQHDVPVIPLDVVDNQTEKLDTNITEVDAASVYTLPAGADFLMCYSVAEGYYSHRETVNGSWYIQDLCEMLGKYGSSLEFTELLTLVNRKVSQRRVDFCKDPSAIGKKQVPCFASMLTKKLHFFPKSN
# Ephrin type-A receptor 4 = Ephrin type-A receptor 4 (Mus musculus, UniProt Q03137); assay: EphA4 ligand-binding antagonists – biochemical, colorimetric, mouse EphA4, primary screen (AID 689); format: functional
# Caspase-9 = Caspase-9 (Homo sapiens, UniProt P55211); assay: inhibitors of purified CASP9 protease – biochemical, fluorescence, plate reader, cherry-picked samples, selectivity assay for caspase-6 inhibitor project, dose response (AID 743293)
# [3] = suppression of HIF-dependent reporter luminescence – cell-based, dry powder samples, 2158-07, ARNT-TACC3 inhibitor project, dose response (AID 720561); format: functional
# [4] = target: T2, Oxysterols receptor LXR-beta (Homo sapiens, UniProt P55055); format: functional, cell-based;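 also: Cell-based luminescence dose-response assay of agonist activity at LXR, run as a confirmatory counterscreen to a daf-12 agonist screen; agonist potency from rising luciferase signal of a Gal4-LXR reporter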
# [5] = target: T2, Oxysterols receptor LXR-beta; assay: LXR agonists, Gal4 luciferase reporter, dose response, counter-screen for ssDAF-12 agonist project, cell-based, luminescence, HEK293, S. stercoralis campaign (AID 720737); format: functional; settings: read-out: IC50 (the source's name)
# [6] = Luminescence-based cell-based high throughput dose response assay to identify activators of the DAF-12 from the parasite S. stercoralis (ssDAF-12).; format: functional
# [7] = target: 1-phosphatidylinositol 4,5-bisphosphate phosphodiesterase beta-3 (Homo sapiens, UniProt Q01970); assay: Fluorescence-based biochemical high throughput dose response assay to identify inhibitors of phospholipase C isozymes (PLC-B3).
# Coagulation factor XII = target: T3, Coagulation factor XII (Homo sapiens, UniProt P00748); format: functional;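 also: activated factor XIIa alpha cleaving a fluorogenic AMC peptide substrate; inhibitor potency from loss of enzyme activity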
# T3 sequence (P00748 whole entry): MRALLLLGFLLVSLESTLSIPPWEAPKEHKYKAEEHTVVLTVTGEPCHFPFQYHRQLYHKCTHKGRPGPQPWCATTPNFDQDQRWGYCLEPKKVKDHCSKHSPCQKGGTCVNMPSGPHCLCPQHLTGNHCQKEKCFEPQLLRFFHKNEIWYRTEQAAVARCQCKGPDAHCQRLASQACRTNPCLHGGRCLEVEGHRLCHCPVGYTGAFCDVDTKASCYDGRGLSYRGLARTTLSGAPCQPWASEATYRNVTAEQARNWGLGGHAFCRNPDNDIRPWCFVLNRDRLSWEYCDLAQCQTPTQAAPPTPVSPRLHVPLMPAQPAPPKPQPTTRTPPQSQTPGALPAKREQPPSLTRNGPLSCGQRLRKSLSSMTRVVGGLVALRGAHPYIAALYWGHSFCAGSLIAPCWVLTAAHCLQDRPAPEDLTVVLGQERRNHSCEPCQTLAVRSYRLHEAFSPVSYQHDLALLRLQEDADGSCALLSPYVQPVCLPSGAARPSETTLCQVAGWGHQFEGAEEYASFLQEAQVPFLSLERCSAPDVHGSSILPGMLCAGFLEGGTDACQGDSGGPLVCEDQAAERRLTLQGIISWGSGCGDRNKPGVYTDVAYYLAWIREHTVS
# [8] = target: 1-phosphatidylinositol 4,5-bisphosphate phosphodiesterase gamma-1 (Homo sapiens, UniProt P19174); assay: Counterscreen for inhibitors of phospholipase C isozymes (PLC-B3): Fluorescence-based biochemical high throughput dose response assay to identify inhibitors of phospholipase C isozymes (PLC-gamma1).
# [9] = OVCAR-3 cell viability loss – plate reader, dry powder samples, PAX8 inhibitor project, dose response (AID 743044); format: functional, cell-based
# [10] = COV434 cell viability loss – plate reader, dry powder, SA7, cytotoxicity control for PAX8 inhibitor project, dose response (AID 743145); format: functional, cell-based
# [11] = OVCAR4 cell viability loss – plate reader, dry powder, SA11, cytotoxicity control for PAX8 inhibitor project, dose response (AID 743150); format: functional, cell-based; settings: OVCAR-4
# [12] = COV362 cell viability loss – plate reader, dry powder, SA12, cytotoxicity control for PAX8 inhibitor project, dose response (AID 743144); format: functional, cell-based
# [13] = PAX5 cellular inhibition readout – cell-based, plate reader, dry powder samples, selectivity assay for PAX8 inhibitor project, dose response (AID 743047); format: functional;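 also: HEK293 cells carrying a Pax5 driven CD19 promoter luciferase reporter; potency of inhibitors that lower reporter luminescence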
# [14] = inhibitors acting on PAX2 in cells – cell-based, plate reader, dry powder samples, selectivity assay for PAX8 inhibitor project, dose response (AID 743048); format: functional;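 also: HEK293 cells carrying a WT1 promoter luciferase reporter driven by expressed Pax2; potency is for inhibition of Pax2 driven reporter signal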
# Paired box protein Pax-8 = Paired box protein Pax-8 (Homo sapiens, UniProt Q06710); assay: PAX8 transcriptional activity inhibition in RMG-I – RMG-I cells, luciferase, cherry-pick, dose response (AID 687027); format: functional, cell-based;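 also: luciferase reporter driven by Pax8 target thyroperoxidase promoter measured by SteadyGlo luminescence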
# [15] = OVCAR8 cell viability loss – plate reader, dry powder samples, PAX8 project, dose response (AID 743197); format: functional, cell-based; settings: OVCAR-8
# [16] = PAX8-dependent cell viability loss – plate reader, dry powder, dose response (AID 743049); format: functional, cell-based
# [17] = OV-90 cell viability loss – plate reader, dry powder, SA8, PAX8 inhibitor project, dose response (AID 743149); format: functional, cell-based
# HEK293 = assay: viability loss in HEK293T cells – cell-based, ATP luminescence, cherry-pick samples, cytotoxicity control, dose response (AID 687005); format: functional; settings: Homo sapiens;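 also: cells exposed to compound for 48 hours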
# [18] = growth inhibition of PfATP4-mutant resistant parasites – NITD609-resistant line, SYBR Green, dry powder, dose response (AID 1159571); format: functional, cell-based;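 also: parasites synchronized at ring stage by sorbitol before testing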
# [19] = HEK293 Cytotoxicity Assay Measured in Cell-Based System Using Plate Reader - 7071-01_Inhibitor_Dose_CherryPick_Activity_Set2.; format: functional
# [20] = Dd2 malaria parasite growth inhibition potency – SYBR Green, dry powder samples, dose response (AID 1159566); format: functional, cell-based;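 also: potency for growth inhibition with lower SYBR green DNA signal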
# [21] = growth inhibition of yeast DHODH-expressing 3D7 parasites – SYBR Green, dry powder samples, dose response (AID 1159570); format: functional, cell-based;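 also: parasite growth measured after 72 hours of compound exposure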
# [22] = P. falciparum Dd2 growth inhibitors, dose response, SYBR Green, cherry-picked samples (AID 1159567); format: functional, cell-based
# [23] = Late stage assay provider results from the probe development effort to identify inhibitors of the Plasmodium falciparum M18 Aspartyl Aminopeptidase (M18AAP): radiolabel-based cell-based dose response assay to identify compounds that inhibit P. falciparum growth in RBCs, Set 2..; format: functional
# [24] = inhibitors of non-replicating M. tuberculosis, dose response, luciferase, dry powder (AID 651619); format: functional; settings: Mycobacterium tuberculosis
# [25] = HepG2 hepatoma cell viability loss – plate reader, dry powder, cytotoxicity control, dose response (AID 651947); format: functional, cell-based
# [26] = HeLa cell viability loss – plate reader, dry powder, cytotoxicity control, dose response (AID 651946); format: functional, cell-based
# [27] = growth inhibition of replicating M. tuberculosis, dose response, counter-screen, dry powder, IC90 (AID 651617); format: functional; settings: Mycobacterium tuberculosis
# [28] = inhibitors of non-replicating M. tuberculosis, dose response, luciferase, dry powder (AID 651620); format: functional; settings: Mycobacterium tuberculosis
# [29] = viability loss in HEK293T cells – cell-based, CellTiter-Glo luminescence, dry powder, set 6, cytotoxicity control, dose response (AID 651949); format: functional; settings: HEK293
# [30] = target: C-C chemokine receptor type 6 (Homo sapiens, UniProt P51684); assay: SAR analysis of small molecule antagonists of the CXCR6 receptor using a CCR6 receptor luminescent beta-arrestin counterscreen.; format: functional
# [31] = target: C-X-C chemokine receptor type 4 (Homo sapiens, UniProt P61073); assay: SAR analysis of small molecule antagonists of the CXCR6 receptor using a CXCR4 receptor luminescent beta-arrestin counterscreen.; format: functional
# [32] = CTGF mRNA reduction in DLD1 cells – cell-based, DLD1 colon cancer, RT-qPCR, cherry-pick, dose response (AID 1053122); format: functional; settings: Cancer cell lines
# [33] = YAP1 overexpression rescue of CTGF inhibition – DLD1 cells, RT-qPCR, cherry-pick, mechanism study for YAP1 pathway inhibitor project, dose response (AID 1053127); format: functional, cell-based; settings: DLD-1
# [34] = target: NAD-dependent protein deacylase sirtuin-5, mitochondrial (Homo sapiens, UniProt Q9NXA8); assay: blockers of sirtuin-5 peptide desuccinylation – biochemical, fluorescence imaging, cherry-pick, set 6, dose response (AID 720597)
# [35] = viability loss in HepG2 liver cells – cell-based, ATP luminescence, cherry-pick, set 6, cytotoxicity control, dose response (AID 1053125); format: functional
# [36] = toxicity to human HepG2 hepatoma cells – cell-based, plate reader, dry powder samples, cytotoxicity control, dose response (AID 1159569); format: functional;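 also: inhibitor potency with signal falling toward the positive control level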
# T2 sequence (P55055 whole entry, the tested form may be a part): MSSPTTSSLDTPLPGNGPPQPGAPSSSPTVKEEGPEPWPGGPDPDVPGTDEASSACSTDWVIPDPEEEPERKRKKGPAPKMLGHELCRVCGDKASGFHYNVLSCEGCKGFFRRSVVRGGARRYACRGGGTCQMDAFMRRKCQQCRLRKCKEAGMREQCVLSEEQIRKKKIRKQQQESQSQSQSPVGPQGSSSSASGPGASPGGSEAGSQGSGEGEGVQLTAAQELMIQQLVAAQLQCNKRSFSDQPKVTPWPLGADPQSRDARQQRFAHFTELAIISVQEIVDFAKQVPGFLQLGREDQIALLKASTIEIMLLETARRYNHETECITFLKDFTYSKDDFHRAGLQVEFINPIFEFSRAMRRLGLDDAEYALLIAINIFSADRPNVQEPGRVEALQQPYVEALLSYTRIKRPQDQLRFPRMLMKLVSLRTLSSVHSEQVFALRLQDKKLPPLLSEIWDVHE
# Chain of C-X-C chemokine receptor type 4 (P61073 whole entry): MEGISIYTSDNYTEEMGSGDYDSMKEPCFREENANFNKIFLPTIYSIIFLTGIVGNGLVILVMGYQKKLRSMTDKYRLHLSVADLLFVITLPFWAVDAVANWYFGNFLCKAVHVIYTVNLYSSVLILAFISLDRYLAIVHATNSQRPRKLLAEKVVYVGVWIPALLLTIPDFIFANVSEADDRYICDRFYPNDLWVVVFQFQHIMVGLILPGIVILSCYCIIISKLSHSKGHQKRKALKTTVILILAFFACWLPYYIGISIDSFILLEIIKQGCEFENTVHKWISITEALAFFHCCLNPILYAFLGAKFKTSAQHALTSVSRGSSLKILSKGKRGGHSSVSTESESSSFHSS
# Chain of Paired box protein Pax-8 (Q06710 whole entry): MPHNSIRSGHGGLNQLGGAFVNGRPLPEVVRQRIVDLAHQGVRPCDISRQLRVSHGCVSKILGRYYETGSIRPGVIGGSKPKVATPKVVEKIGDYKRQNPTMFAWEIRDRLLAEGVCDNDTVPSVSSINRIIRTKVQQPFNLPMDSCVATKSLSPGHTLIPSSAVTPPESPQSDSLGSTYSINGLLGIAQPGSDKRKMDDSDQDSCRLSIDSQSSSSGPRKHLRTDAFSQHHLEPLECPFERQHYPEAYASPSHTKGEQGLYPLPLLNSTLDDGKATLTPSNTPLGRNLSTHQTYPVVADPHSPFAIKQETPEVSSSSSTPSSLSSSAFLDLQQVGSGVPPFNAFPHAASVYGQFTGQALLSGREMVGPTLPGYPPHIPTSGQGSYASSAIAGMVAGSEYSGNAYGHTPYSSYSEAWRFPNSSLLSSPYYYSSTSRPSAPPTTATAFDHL
# Chain of NAD-dependent protein deacylase sirtuin-5, mitochondrial (Q9NXA8 whole entry): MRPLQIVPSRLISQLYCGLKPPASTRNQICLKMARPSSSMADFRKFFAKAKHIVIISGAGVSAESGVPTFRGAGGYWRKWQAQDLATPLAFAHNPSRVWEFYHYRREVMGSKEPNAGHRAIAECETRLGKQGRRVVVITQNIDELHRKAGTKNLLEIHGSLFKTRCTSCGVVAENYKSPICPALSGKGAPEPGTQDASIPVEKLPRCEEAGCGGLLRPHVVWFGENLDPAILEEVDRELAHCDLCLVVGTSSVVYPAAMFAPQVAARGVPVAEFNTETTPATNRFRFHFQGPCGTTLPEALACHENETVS
# Chain of Eukaryotic translation initiation factor 4E (P63073 whole entry): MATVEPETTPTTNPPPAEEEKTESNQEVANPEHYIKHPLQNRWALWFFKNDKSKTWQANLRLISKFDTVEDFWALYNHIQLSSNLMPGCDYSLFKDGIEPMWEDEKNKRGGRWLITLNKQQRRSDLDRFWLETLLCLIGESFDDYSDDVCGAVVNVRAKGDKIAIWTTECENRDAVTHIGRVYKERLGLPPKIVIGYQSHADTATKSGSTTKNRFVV
# Chain of Ephrin type-A receptor 4 (Q03137 whole entry): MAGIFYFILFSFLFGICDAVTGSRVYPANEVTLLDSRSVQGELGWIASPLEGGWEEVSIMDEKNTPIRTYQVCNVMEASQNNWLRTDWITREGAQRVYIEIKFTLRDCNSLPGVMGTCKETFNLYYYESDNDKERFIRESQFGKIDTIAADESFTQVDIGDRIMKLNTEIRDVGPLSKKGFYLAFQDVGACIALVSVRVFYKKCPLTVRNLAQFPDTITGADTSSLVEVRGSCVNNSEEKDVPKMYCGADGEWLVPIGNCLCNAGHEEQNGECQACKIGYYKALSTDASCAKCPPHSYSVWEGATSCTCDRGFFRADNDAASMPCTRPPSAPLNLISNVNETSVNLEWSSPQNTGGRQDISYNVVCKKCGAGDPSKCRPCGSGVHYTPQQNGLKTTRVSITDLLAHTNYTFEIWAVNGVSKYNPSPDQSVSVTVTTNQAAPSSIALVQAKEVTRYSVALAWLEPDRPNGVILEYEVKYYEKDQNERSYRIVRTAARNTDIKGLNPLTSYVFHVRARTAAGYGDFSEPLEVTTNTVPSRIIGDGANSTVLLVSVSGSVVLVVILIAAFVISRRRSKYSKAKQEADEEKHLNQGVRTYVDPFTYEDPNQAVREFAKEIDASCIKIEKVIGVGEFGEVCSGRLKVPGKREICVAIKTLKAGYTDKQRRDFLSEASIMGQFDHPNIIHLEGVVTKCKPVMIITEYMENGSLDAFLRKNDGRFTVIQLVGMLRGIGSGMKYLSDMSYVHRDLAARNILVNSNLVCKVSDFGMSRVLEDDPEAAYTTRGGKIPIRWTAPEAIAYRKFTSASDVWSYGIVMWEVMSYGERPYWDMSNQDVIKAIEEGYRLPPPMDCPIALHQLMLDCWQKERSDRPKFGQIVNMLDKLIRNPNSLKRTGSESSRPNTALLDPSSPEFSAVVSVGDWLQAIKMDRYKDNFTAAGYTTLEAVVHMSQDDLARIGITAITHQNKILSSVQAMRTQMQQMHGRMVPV
# Chain of Caspase-9 (P55211 1-315 limits assumed): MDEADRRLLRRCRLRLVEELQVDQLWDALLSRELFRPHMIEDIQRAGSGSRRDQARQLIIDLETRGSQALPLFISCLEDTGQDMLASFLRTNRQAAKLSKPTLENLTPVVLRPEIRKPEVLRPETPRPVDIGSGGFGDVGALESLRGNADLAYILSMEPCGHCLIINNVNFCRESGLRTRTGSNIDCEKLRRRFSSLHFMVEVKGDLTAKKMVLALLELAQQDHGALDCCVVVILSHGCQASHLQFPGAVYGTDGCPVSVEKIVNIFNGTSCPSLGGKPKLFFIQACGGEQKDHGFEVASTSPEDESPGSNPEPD
# Chain of Caspase-9 (P55211 331-416 limits assumed): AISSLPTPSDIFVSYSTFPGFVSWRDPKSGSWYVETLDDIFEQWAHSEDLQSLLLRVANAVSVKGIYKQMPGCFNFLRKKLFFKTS
# Chain of Caspase-8 (Q14790 217-374 limits assumed): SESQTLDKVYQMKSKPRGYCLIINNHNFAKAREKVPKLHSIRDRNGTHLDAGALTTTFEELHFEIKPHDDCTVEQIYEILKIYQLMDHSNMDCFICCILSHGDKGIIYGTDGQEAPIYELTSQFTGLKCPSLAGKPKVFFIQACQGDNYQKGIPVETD
# Chain of Caspase-8 (Q14790 385-479 limits assumed): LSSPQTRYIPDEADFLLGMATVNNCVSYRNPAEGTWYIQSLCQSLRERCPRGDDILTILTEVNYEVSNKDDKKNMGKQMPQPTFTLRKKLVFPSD
# Chain of Caspase-7 (P55210 24-198 limits assumed): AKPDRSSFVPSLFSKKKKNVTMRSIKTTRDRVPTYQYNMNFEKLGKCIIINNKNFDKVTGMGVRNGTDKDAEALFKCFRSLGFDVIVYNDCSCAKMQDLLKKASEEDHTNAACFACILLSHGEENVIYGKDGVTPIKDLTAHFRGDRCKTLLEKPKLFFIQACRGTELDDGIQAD
# Chain of Caspase-7 (P55210 207-303 limits assumed): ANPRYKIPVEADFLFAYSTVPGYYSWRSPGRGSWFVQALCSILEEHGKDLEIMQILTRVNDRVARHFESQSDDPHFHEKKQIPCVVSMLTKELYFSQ
# Chain of Induced myeloid leukemia cell differentiation protein Mcl-1 (Q07820 whole entry): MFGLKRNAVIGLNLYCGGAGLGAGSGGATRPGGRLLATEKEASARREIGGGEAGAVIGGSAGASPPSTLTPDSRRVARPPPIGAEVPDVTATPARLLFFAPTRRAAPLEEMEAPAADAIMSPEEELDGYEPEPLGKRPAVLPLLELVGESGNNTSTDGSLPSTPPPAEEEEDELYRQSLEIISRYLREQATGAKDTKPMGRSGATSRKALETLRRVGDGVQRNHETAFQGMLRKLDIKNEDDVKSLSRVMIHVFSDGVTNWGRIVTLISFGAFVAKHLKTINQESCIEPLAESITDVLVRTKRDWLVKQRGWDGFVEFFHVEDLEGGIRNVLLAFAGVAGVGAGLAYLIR
# Chain of C-C chemokine receptor type 6 (P51684 whole entry): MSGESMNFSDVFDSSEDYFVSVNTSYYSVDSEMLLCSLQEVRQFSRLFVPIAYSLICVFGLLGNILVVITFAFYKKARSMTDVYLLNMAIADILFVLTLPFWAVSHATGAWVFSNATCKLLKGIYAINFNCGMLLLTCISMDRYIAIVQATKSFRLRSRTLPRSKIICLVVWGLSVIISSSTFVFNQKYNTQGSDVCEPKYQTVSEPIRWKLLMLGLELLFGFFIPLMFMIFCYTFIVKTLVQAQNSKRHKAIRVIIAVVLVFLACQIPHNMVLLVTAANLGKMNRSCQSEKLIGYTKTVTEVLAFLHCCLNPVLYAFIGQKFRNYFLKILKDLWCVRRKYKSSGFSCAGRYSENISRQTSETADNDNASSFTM
smiles,measurement,setting,value
COc1ccc(S(=O)(=O)Nc2cc(Sc3nc[nH]n3)c(O)c3ccccc23)cc1,IC50,[1],> 64 µM (inactive)
same,AC50,Caspase-7,8.7 µM (active)
same,AC50,Caspase-8,22 µM (active)
same,IC50,[2],7.73 µM (active)
same,AC50,Caspase-6,0.998 µM (active)
same,IC50,Ephrin type-A receptor 4,6.77 µM (active)
same,AC50,Caspase-9,31.6 µM (active)
O=C(Nc1nnc(C2=COCCO2)o1)c1ccc(S(=O)(=O)N2CCCCC2)cc1,AC50,[3],> 100 µM (inactive)
COc1ccccc1C(=O)NC(=S)Nc1cccnc1Cl,EC50,[4],> 67.5 µM (inactive)
same,EC50,cells,> 67.5 µM (inactive)
O=C(NCc1cccs1)c1cccc2c(-c3ccc(F)c(F)c3)coc12,EC50,[5],> 67.5 µM (inactive)
same,IC50,[6],> 67.5 µM (inactive)
CS(=O)(=O)c1nc(-c2ccc(Br)cc2)n[nH]1,IC50,[7],> 122 µM (inactive)
same,IC50,Coagulation factor XII,> 50 µM (inactive)
same,IC50,[8],50.8 µM (inactive)
C[C@@H]1CN([C@@H](C)CO)C(=O)Cc2cc(NS(=O)(=O)c3ccccc3)ccc2O[C@H]1CN(C)Cc1ccc(C(F)(F)F)cc1,AC50,[9],23.4 µM (active)
same,AC50,[10],32.6 µM (active)
same,AC50,[11],45.6 µM (active)
same,AC50,[12],31.6 µM (active)
same,AC50,[13],18.8 µM (active)
same,AC50,[14],17 µM (active)
same,AC50,Paired box protein Pax-8,6.03 µM (active)
same,AC50,[15],23.9 µM (active)
same,AC50,[16],11.1 µM (active)
same,AC50,[17],28.5 µM (active)
COc1ccc(C#Cc2ccc3c(c2)O[C@H](CN(C)C(=O)Nc2cccc(OC)c2)[C@H](C)CN([C@@H](C)CO)S3(=O)=O)cc1,AC50,HEK293,26.3 µM (active)
same,AC50,[18],1.69 µM (active)
same,AC50,[19],26.3 µM (active)
same,AC50,[20],1.06 µM (active)
same,AC50,[21],2.21 µM (active)
same,AC50,[22],1.46 µM (active)
Oc1ccc(CCNc2ccnc3ccccc23)cc1O,IC50,[23],3.9 µM (active)
[O-][S+](Cc1cn(Cc2ccccc2)nn1)c1nnc(-c2ccc(Cl)cc2)o1 (centres undefined),IC90,[24],2 µM (active)
same,AC50,[25],19.6 µM (active)
same,AC50,[26],24.2 µM (active)
same,IC90,[27],125 µM (active)
same,IC90,[28],2 µM (active)
CN(Cc1ccccc1)c1nnc(-c2ccccc2)o1,AC50,[29],> 52 µM (inactive)
COc1cc(C(=O)NC2CC3CCCC(C2)N3CC(=O)Nc2ccc(F)cc2)cc(OC)c1OC (centres undefined),IC50,[30],> 79 µM (inactive)
same,IC50,[31],> 79 µM (inactive)
CO[C@@H](CN(C)S(=O)(=O)c1ccc(C)cc1)[C@H](C)CN([C@H](C)CO)S(=O)(=O)c1cccc(Cl)c1,AC50,[32],4.99 µM (active)
same,AC50,[33],4.83 µM (active)
C[C@H](CO)N1C[C@H](C)[C@H](CN(C)C)Oc2ccc(NC(=O)Nc3ccc(F)cc3)cc2CC1=O,AC50,[34],11.5 µM (active)
CC(=O)/N=c1\c(C#N)cc2c(=O)n3ccccc3nc2n1CCCOC(C)C,AC50,[35],> 52 µM (inactive)
CO[C@@H]1CN(C)C(=O)c2cc(NC(=O)Nc3ccc(C(F)(F)F)cc3)ccc2OC[C@H](C)NC[C@H]1C,AC50,[36],19.3 µM (active)
same,AC50,[18],3.24 µM (active)
same,AC50,[20],2.28 µM (active)
same,AC50,[21],1.61 µM (active)
same,AC50,[22],2.01 µM (active)
